Measured values published in US7247617B2, “Sixteen-member macrolide antiinfective agents” (Kosan Biosciences Incorporated, priority 2004, dated 2007).

What was measured:
[1] = tested on: S. pneumoniae; assay: Biological activity against bacterial strains: S. pneumoniae; assay type: cell-based, Streptococcus pneumoniae; design: Biological Activity, S. pneumoniae ATCC6301 / Biological Activity, S. pneumoniae ATCC700671 / Biological Activity, S. pneumoniae ATCC700676* / Biological Activity, S. pneumoniae ATCC700677* / Biological Activity, S. pneumoniae ATCC700905* / Biological Activity, S. pneumoniae ATCC700906* / Biological Activity, S. pneumoniae ATCC49619: unit not given here; details: for Biological Activity, S. pneumoniae ATCC6301: strain ATCC6301; for Biological Activity, S. pneumoniae ATCC49619: strain ATCC49619; for Biological Activity, S. pneumoniae ATCC700671: strain ATCC700671; for Biological Activity, S. pneumoniae ATCC700676*: strain ATCC700676, macrolide resistant strain; for Biological Activity, S. pneumoniae ATCC700677*: strain ATCC700677, macrolide resistant strain; for Biological Activity, S. pneumoniae ATCC700905*: strain ATCC700905, macrolide resistant strain; for Biological Activity, S. pneumoniae ATCC700906*: strain ATCC700906, macrolide resistant strain
[2] = tested on: S. epidermidis; assay: Biological activity against bacterial strains: S. epidermidis; assay type: cell-based, Staphylococcus epidermidis; details: strain ATCC12228
[3] = tested on: S. aureus; assay: Biological activity against bacterial strains: S. aureus; assay type: cell-based, Staphylococcus aureus; design: unit not given here; details: for Biological Activity, S. aureus ATCC6538p: strain ATCC6538p; for Biological Activity, S. aureus ATCC14154*: strain ATCC14154, macrolide resistant strain; for Biological Activity, S. aureus ATCC29213: strain ATCC29213; for Biological Activity, S. aureus ATCC33591*: strain ATCC33591, macrolide resistant strain; for Biological Activity, S. aureus ATCCBAA-39*: strain ATCCBAA-39, macrolide resistant strain; for Biological Activity, S. aureus ATCCBAA-44*: strain ATCCBAA-44, macrolide resistant strain
[4] = tested on: E. faecalis; assay: Biological activity against bacterial strains: E. faecalis; assay type: cell-based, Enterococcus faecalis; details: strain ATCC51575

Row | SMILES | Biological Activity, S. pneumoniae ATCC6301 [1] | Biological Activity, S. pneumoniae ATCC49619 [1] | Biological Activity, S. pneumoniae ATCC700671 [1] | Biological Activity, S. pneumoniae ATCC700676* [1] | Biological Activity, S. pneumoniae ATCC700677* [1] | Biological Activity, S. pneumoniae ATCC700905* [1] | Biological Activity, S. pneumoniae ATCC700906* [1] | Biological Activity, S. epidermidis ATCC12228 [2] | Biological Activity, S. aureus ATCC6538p [3] | Biological Activity, S. aureus ATCC14154* [3] | Biological Activity, S. aureus ATCC29213 [3] | Biological Activity, S. aureus ATCC33591* [3] | Biological Activity, S. aureus ATCCBAA-39* [3] | Biological Activity, S. aureus ATCCBAA-44* [3] | Biological Activity, E. faecalis ATCC51575 [4]
1 | CCC1OC(=O)CC(O)C(C)C(OC2OC(C)C(O)C(N(C)C)C2O)C(CCN2CC(C)CC(C)C2)CC(C)C(=NOCCCOc2ccc3ncccc3c2)C=CC(C)=CC1COC1OC(C)C(O)C(OC)C1OC (single isomer, unassigned) [Compound K] | 0.01 | 0.098 | 0.025 | 0.049 | 0.049 | 0.20 | >12.5 | 0.39 | 0.20 | 0.39 | 0.39 | >12.5 | >12.5 | >12.5 | >12.5
2 | CCC1OC(=O)CC(O)C(C)C(OC2OC(C)C(O)C(N(C)C)C2O)C(CCN2CC(C)CC(C)C2)CC(C)C(=NOCCCOc2ccc3ncccc3c2)C=CC(C)=CC1COC1OC(C)C(O)C(OC)C1OC (single isomer, unassigned) [Compound L] | 0.01 | 0.025 | 0.01 | 0.049 | 0.025 | 0.098 | >12.5 | 0.20 | 0.20 | 0.20 | 0.20 | >12.5 | >12.5 | >12.5 | >12.5
3 | CCC1OC(=O)CC(O)C(C)C(OC2OC(C)C(O)C(N(C)C)C2O)C(CCN2CC(C)CC(C)C2)CC(C)C(=NOCCCCOc2ccc3ncccc3c2)C=CC(C)=CC1COC1OC(C)C(O)C(OC)C1OC (single isomer, unassigned) [Compound M] | 0.01 | 0.01 | 0.01 | 1.56 | 6.25 | 1.56 | >12.5 | 1.56 | 0.78 | 1.56 | 1.56 | >12.5 | >12.5 | >12.5 | >12.5
4 | CCC1OC(=O)CC(O)C(C)C(OC2OC(C)C(O)C(N(C)C)C2O)C(CCN2CC(C)CC(C)C2)CC(C)C(=NOCCCCOc2ccc3ncccc3c2)C=CC(C)=CC1COC1OC(C)C(O)C(OC)C1OC (single isomer, unassigned) [Compound N] | 0.025 | 0.098 | 0.049 | 1.56 | 6.25 | 0.78 | >12.5 | 3.12 | 0.78 | 1.56 | 3.12 | >12.5 | >12.5 | >12.5 | >12.5
5 | CCC1OC(=O)CC(O)C(C)C(OC2OC(C)C(O)C(N(C)C)C2O)C(CCN2CC(C)CC(C)C2)CC(C)C(=NOCc2ccc(F)cc2)C=CC(C)=CC1COC1OC(C)C(O)C(OC)C1OC (single isomer, unassigned) [Compound P] | 0.39 | 0.78 | 0.78 | 3.12 | 6.25 | 3.12 | 12.5 | 0.78 | 0.39 | 6.25 | 0.78 | >12.5 | >12.5 | >12.5 | >12.5
6 | CCC1OC(=O)CC(O)C(C)C(OC2OC(C)C(O)C(N(C)C)C2O)C(CCN2CC(C)CC(C)C2)CC(C)C(=NOCc2ccc(F)cc2)C=CC(C)=CC1COC1OC(C)C(O)C(OC)C1OC (single isomer, unassigned) [Compound Q] | 0.20 | 0.39 | 0.39 | 0.78 | 6.25 | 0.78 | 12.5 | 0.78 | 0.20 | 0.78 | 0.78 | 12.5 | >12.5 | >12.5 | >12.5
7 | CCC1OC(=O)CC(O)C(C)C(OC2OC(C)C(O)C(N(C)C)C2O)C(CCN2CC(C)CC(C)C2)CC(C)C(=NOCCCCOc2ccc3ncccc3c2)C=CC(C)=CC1CO (single isomer, unassigned) [Compound T] | 1.56 | 6.25 | 3.12 | 6.25 | >12.5 | 6.25 | >12.5 | >12.5 | 6.25 | >12.5 | 12.5 | >12.5 | >12.5 | >12.5 | >12.5
8 | CCC1OC(=O)CC(O)C(C)C(OC2OC(C)C(O)C(N(C)C)C2O)C(CCN2CC(C)CC(C)C2)CC(C)C(=NOCCCCOc2ccc3ncccc3c2)C=CC(C)=CC1CO (single isomer, unassigned) [Compound U] | 6.25 | 12.5 | 12.5 | >12.5 | >12.5 | 12.5 | >12.5 | >12.5 | >12.5 | >12.5 | >12.5 | >12.5 | >12.5 | >12.5 | >12.5
